We go through six molecules from the NIST ThermoML archive (doi:10.1021/je025629r).

Molecules are shown by their SMILES. ± gives the expanded uncertainty stated by the source.

A word on the mass density: it is the mass of a sample divided by its volume.

The conditions of this data set: 298.2 K; 101.33 kPa; Liquid; vibrating tube.
For `CCCCCCCC[n+]1ccn(C)c1.[Cl-]` [1-methyl-3-octylimidazolium chloride], the mass density is 1010.4 ± 1 kg/m3.
With `CCCCCCCCCCCC` [dodecane] the figure was 746.6 ± 0.4 kg/m3; with `CCO` [ethanol], 784.93 ± 0.42 kg/m3; with `CCCCCCC` [heptane], 682.3 ± 0.4 kg/m3.
Consider `CCCCCCCCCCCCCCCC` [hexadecane], for which the mass density is given as 770.3 ± 0.4 kg/m3.
Consider `CO` [methanol], for which the mass density was determined as 786.27 ± 0.42 kg/m3.
